Data: the kinase profiling compilation of Christmann-Franck et al. (2016)

Columns and labels:
Experiment in all cases: radiometric filter-binding kinase assay, Kinase HotSpot
Conditions in all cases: compound 0.5 µM; ATP 10 µM
[1] = target: CAMK1 (human) (UniProt Q14012)
[2] = target: CLK2 (human) (UniProt P49760)
[3] = target: NEK6 (human) (UniProt Q9HC98)
[4] = target: NTRK2 (human) (UniProt Q16620)
[5] = target: FES (human) (UniProt P07332)
[6] = target: PKN1 (human) (UniProt Q16512)
[7] = target: PASK (human) (UniProt Q96RG2)
[8] = target: TGFBR1 (human) (UniProt P36897)
[9] = target: IRAK4 (human) (UniProt Q9NWZ3)
[10] = target: DYRK2 (human) (UniProt Q92630)
[11] = target: ERBB4 (human) (UniProt Q15303)
[12] = target: STK11 (human) (UniProt Q15831)
[13] = target: RET (human) (UniProt P07949)
[14] = target: DYRK4 (human) (UniProt Q9NR20)
[15] = target: CSNK1A1 (human) (UniProt P48729)
[16] = target: CDK9 CCNT1 (human) (UniProt P50750+O60563)
[17] = target: FLT1 (human) (UniProt P17948)
[18] = target: MLTK (human) (UniProt Q9NYL2)
[19] = target: RIPK2 (human) (UniProt O43353)
[20] = target: STK16 (human) (UniProt O75716)
[21] = target: AKT3 (human) (UniProt Q9Y243)
[22] = target: MAPK9 (human) (UniProt P45984)
[23] = target: DYRK1B (human) (UniProt Q9Y463)
[24] = target: FGFR2 (human) (UniProt P21802)
[25] = target: MAPK3 (human) (UniProt P27361)
[26] = target: MYLK (human) (UniProt Q15746)
[27] = target: MAPK13 (human) (UniProt O15264)
[28] = target: TBK1 (human) (UniProt Q9UHD2)
[29] = target: KDR (human) (UniProt P35968)
[30] = target: BLK (human) (UniProt P51451)
[31] = target: DCLK2 (human) (UniProt Q8N568)
[32] = target: JAK2 JH1 JH2 (human) (UniProt O60674)
[33] = target: CDK7 CCNH MNAT1 (human) (UniProt P50613+P51948+P51946)
[34] = target: CHEK1 (human) (UniProt O14757)
[35] = target: CAMK1G (human) (UniProt Q96NX5)
[36] = target: TGFBR2 (human) (UniProt P37173)
[37] = target: TAOK1 (human) (UniProt Q7L7X3)
[38] = target: EPHA2 (human) (UniProt P29317)
[39] = target: NLK (human) (UniProt Q9UBE8)
[40] = target: ADRBK2 (human) (UniProt P35626)
[41] = target: SYK (human) (UniProt P43405)
[42] = target: ADRBK1 (human) (UniProt P25098)

Chain of CLK2 (human) (P49760 whole entry, looked up): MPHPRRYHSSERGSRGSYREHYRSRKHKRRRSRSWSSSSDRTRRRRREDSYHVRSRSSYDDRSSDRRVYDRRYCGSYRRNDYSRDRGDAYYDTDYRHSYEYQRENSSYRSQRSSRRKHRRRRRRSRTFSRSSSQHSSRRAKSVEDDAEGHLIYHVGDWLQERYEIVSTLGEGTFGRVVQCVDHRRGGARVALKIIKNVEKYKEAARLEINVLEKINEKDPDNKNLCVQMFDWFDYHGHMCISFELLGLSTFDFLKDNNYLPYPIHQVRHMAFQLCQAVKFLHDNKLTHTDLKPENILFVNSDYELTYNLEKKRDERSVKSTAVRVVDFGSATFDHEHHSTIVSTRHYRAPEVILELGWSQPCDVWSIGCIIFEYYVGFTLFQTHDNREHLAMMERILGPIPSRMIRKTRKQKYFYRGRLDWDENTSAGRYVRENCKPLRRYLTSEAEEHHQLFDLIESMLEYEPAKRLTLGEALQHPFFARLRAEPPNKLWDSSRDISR
Chain of NTRK2 (human) (Q16620 whole entry, looked up): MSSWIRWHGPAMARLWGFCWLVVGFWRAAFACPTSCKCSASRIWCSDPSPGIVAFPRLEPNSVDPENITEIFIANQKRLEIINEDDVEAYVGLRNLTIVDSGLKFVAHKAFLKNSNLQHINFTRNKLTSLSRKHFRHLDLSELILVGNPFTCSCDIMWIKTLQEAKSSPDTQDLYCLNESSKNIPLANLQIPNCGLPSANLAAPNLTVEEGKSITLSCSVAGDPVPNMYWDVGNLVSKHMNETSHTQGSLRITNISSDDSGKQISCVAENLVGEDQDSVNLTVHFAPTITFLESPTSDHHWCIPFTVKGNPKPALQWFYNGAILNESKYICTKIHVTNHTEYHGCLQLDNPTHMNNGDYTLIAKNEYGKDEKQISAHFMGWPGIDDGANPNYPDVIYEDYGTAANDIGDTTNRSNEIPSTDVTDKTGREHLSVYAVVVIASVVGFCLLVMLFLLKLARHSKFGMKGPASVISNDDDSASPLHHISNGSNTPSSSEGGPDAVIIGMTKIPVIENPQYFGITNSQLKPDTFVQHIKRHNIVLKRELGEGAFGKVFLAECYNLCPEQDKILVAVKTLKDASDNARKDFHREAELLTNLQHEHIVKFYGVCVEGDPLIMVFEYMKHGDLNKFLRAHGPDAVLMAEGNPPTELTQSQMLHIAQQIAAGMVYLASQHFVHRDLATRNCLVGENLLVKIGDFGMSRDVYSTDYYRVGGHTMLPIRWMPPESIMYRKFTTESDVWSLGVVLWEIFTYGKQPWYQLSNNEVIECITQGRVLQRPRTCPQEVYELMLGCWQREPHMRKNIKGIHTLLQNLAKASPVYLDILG
Chain of DYRK2 (human) (Q92630 whole entry, looked up): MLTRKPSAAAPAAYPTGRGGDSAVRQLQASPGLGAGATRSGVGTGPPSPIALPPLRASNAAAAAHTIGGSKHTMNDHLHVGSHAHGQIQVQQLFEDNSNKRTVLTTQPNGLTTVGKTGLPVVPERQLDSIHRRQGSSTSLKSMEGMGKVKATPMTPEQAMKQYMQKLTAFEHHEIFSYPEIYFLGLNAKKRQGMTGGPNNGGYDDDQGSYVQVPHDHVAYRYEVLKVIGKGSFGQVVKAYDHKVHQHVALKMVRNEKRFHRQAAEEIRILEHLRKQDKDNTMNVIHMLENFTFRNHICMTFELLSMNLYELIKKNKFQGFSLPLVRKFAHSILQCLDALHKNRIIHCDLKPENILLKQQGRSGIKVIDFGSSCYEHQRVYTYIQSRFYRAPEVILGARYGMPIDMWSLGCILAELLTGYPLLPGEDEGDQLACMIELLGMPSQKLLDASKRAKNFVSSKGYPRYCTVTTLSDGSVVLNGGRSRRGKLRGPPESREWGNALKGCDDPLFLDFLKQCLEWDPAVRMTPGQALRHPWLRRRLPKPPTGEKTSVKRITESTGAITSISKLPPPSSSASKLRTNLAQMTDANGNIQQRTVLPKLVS
Chain of MLTK (human) (Q9NYL2 whole entry, looked up): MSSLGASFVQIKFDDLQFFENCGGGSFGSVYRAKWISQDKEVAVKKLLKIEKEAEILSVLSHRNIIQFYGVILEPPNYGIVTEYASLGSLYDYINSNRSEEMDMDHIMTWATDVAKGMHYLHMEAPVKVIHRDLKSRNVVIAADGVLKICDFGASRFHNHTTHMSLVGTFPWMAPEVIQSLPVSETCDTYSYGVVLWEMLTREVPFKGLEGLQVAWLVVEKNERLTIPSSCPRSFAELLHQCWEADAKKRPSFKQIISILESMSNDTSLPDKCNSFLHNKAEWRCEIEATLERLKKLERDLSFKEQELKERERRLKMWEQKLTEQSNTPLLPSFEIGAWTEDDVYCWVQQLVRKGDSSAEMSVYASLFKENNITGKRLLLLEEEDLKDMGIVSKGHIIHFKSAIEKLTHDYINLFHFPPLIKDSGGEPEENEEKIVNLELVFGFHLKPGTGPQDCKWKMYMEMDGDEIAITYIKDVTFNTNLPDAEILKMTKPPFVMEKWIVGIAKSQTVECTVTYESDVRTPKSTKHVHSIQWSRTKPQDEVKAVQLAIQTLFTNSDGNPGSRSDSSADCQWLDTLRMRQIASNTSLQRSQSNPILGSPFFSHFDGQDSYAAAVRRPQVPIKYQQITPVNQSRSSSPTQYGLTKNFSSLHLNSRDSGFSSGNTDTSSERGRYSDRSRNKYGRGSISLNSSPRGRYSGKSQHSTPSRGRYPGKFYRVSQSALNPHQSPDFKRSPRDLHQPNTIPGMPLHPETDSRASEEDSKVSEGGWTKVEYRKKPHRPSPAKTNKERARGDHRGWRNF
Chain of DCLK2 (human) (Q8N568 whole entry, looked up): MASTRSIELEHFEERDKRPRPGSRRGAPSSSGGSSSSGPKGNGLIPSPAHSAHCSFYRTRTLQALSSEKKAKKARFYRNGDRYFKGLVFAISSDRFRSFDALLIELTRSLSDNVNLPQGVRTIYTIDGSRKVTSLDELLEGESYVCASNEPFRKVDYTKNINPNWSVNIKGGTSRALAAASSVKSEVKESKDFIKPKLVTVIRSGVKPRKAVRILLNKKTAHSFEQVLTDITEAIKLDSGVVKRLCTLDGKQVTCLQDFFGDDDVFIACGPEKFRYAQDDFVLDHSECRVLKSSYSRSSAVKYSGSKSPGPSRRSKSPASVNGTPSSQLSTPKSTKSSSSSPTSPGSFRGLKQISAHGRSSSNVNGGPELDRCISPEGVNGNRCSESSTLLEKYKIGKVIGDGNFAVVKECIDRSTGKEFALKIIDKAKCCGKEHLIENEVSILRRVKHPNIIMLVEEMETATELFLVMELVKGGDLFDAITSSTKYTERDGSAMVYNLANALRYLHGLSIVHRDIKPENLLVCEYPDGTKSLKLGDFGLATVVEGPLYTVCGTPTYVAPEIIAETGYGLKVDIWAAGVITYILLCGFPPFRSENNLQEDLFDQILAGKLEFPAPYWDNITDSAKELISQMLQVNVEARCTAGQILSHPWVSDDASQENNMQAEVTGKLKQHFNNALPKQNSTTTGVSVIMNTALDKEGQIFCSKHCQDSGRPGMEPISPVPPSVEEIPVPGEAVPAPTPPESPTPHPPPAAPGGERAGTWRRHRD
Chain of CAMK1 (human) (Q14012 whole entry, looked up): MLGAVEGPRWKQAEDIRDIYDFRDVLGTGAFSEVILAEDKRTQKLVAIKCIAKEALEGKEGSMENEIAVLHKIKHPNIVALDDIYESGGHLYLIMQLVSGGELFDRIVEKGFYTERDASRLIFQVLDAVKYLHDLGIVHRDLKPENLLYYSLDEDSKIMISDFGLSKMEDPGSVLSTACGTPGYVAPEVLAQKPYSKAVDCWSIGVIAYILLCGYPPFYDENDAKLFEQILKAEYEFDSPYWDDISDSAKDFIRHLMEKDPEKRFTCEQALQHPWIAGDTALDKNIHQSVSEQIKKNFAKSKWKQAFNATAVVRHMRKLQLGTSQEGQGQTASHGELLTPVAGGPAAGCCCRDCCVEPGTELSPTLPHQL
Chain of CDK9 CCNT1 (human) (O60563 whole entry, looked up): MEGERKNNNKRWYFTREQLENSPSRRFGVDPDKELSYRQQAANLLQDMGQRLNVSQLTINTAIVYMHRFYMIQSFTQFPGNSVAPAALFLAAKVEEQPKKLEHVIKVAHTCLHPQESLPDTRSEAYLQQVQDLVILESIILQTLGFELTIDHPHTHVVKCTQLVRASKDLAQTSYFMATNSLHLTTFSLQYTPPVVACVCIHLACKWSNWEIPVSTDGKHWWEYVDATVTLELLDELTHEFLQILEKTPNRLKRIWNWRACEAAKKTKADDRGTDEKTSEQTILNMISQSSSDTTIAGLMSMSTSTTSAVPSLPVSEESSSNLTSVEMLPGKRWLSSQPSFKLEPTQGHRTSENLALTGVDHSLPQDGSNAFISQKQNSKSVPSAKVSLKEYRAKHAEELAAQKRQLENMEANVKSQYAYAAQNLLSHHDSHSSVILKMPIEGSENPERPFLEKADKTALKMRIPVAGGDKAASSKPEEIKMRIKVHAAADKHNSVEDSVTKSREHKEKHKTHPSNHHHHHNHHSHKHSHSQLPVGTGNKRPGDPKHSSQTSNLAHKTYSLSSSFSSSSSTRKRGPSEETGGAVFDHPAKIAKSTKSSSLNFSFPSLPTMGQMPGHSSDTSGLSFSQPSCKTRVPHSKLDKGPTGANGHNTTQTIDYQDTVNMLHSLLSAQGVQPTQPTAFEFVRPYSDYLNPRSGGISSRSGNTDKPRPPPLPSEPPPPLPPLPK
Chain of CDK9 CCNT1 (human) (P50750 whole entry, looked up): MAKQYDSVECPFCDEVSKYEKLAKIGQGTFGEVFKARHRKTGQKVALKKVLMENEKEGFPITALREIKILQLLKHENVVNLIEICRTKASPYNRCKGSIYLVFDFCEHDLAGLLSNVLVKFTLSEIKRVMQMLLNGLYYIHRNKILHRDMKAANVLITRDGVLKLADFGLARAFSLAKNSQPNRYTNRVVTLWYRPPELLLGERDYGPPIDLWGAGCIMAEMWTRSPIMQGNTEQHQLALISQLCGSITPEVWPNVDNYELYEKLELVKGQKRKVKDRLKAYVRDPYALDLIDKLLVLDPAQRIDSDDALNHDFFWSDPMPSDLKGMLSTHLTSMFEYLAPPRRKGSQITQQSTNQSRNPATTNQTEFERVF

`Cn1cnc2cc3c(Nc4cccc(Br)c4)ncnc3cc21` was tested, and the residual activity [1] was 106%, the residual activity [2] was 93.9% and the residual activity [3] was 98.1%. It also gave a residual activity [4] of 98.9%, a residual activity [5] of 101% and a residual activity [6] of 89.1%. The residual activity [7] was 89.8%, the residual activity [8] was 97.6% and the residual activity [9] was 89.1%. For the same molecule, the residual activity [10] was 95.5%, the residual activity [11] was 75.5% and the residual activity [12] was 91.1%. The residual activity [13] was 54.4%, the residual activity [14] was 97.5% and the residual activity [15] was 102%. It also gave a residual activity [16] of 88.5%, a residual activity [17] of 77.4% and a residual activity [18] of 93.3%. The residual activity [19] was 35.6%, the residual activity [20] was 96.3% and the residual activity [21] was 89.5%. For the same molecule, the residual activity [22] was 92.3%, the residual activity [23] was 98.1% and the residual activity [24] was 98%. It also gave a residual activity [25] of 109%, a residual activity [26] of 83.3% and a residual activity [27] of 101%. For the same molecule, the residual activity [28] was 87.7%, the residual activity [29] was 71.7% and the residual activity [30] was 81%. The residual activity [31] was 92.9%, the residual activity [32] was 103% and the residual activity [33] was 99.5%. The residual activity [34] was 113%, the residual activity [35] was 94.2% and the residual activity [36] was 98.9%. The residual activity [37] was 92.4%, the residual activity [38] was 81.8% and the residual activity [39] was 100%. The residual activity [40] was 89.9%, the residual activity [41] was 98.5% and the residual activity [42] was 100%.

In the case of `O=C(CCCc1ccc(-c2ccccc2F)cc1)Nc1ccc(O)cc1`, the residual activity [1] is reported as 101%, the residual activity [2] is reported as 103% and the residual activity [3] is reported as 99.4%. The residual activity [4] was 95.8%, the residual activity [5] was 100% and the residual activity [6] was 105%. The residual activity [7] was 101%, the residual activity [8] was 102% and the residual activity [9] was 86.3%. It also gave a residual activity [10] of 91.8%, a residual activity [11] of 107% and a residual activity [12] of 97.4%. For the same molecule, the residual activity [13] was 111%, the residual activity [14] was 97.4% and the residual activity [15] was 101%. The residual activity [16] was 103%, the residual activity [17] was 93.1% and the residual activity [18] was 97.8%. For the same molecule, the residual activity [19] was 84.5%, the residual activity [20] was 111% and the residual activity [21] was 111%. For the same molecule, the residual activity [22] was 106%, the residual activity [23] was 108% and the residual activity [24] was 102%. It also gave a residual activity [25] of 132%, a residual activity [26] of 98.6% and a residual activity [27] of 103%. For the same molecule, the residual activity [28] was 98.2%, the residual activity [29] was 101% and the residual activity [30] was 101%. It also gave a residual activity [31] of 96.1%, a residual activity [32] of 98.5% and a residual activity [33] of 101%. The residual activity [34] was 98.8%, the residual activity [35] was 96.8% and the residual activity [36] was 101%. The residual activity [37] was 91.4%, the residual activity [38] was 101% and the residual activity [39] was 101%. The residual activity [40] was 100%, the residual activity [41] was 101% and the residual activity [42] was 105%.

Molecule `Cc1nc2cc3nc(-c4cccs4)cnc3cc2n1C` has a residual activity [1] of 98.1%, a residual activity [2] of 95.3% and a residual activity [3] of 99.2%. The residual activity [4] was 64.7%, the residual activity [5] was 106% and the residual activity [6] was 96.5%. For the same molecule, the residual activity [7] was 110%, the residual activity [8] was 98.7% and the residual activity [9] was 201%. The residual activity [10] was 104%, the residual activity [11] was 95% and the residual activity [12] was 89.6%. The residual activity [13] was 68.9%, the residual activity [14] was 104% and the residual activity [15] was 96.7%. For the same molecule, the residual activity [16] was 88.3%, the residual activity [17] was 93.6% and the residual activity [18] was 89.1%. For the same molecule, the residual activity [19] was 89.1%, the residual activity [20] was 95.2% and the residual activity [21] was 112%. It also gave a residual activity [22] of 74.7%, a residual activity [23] of 102% and a residual activity [24] of 91.8%. The residual activity [25] was 117%, the residual activity [26] was 97% and the residual activity [27] was 99.7%. The residual activity [28] was 93%, the residual activity [29] was 77.4% and the residual activity [30] was 99.8%. The residual activity [31] was 104%, the residual activity [32] was 106% and the residual activity [33] was 102%. For the same molecule, the residual activity [34] was 99.8%, the residual activity [35] was 106% and the residual activity [36] was 89.2%. For the same molecule, the residual activity [37] was 110%, the residual activity [38] was 107% and the residual activity [39] was 105%. It also gave a residual activity [40] of 99.2%, a residual activity [41] of 94.3% and a residual activity [42] of 83.7%.

For `Nc1nnc2[nH]c3ccccc3nc1-2`, the residual activity [1] was 94.4%, the residual activity [2] was 96.1% and the residual activity [3] was 95.5%. It also gave a residual activity [4] of 96.4%, a residual activity [5] of 96.8% and a residual activity [6] of 92%. The residual activity [7] was 93.7%, the residual activity [8] was 98.1% and the residual activity [9] was 94.7%. It also gave a residual activity [10] of 91.6%, a residual activity [12] of 85.7% and a residual activity [13] of 97.1%. The residual activity [14] was 89.2%, the residual activity [15] was 101% and the residual activity [16] was 81.6%. For the same molecule, the residual activity [17] was 92.1%, the residual activity [18] was 96.3% and the residual activity [19] was 81.1%. For the same molecule, the residual activity [20] was 91.9%, the residual activity [21] was 95.3% and the residual activity [22] was 103%. The residual activity [23] was 96%, the residual activity [24] was 98.1% and the residual activity [25] was 113%. It also gave a residual activity [26] of 93.6%, a residual activity [27] of 101% and a residual activity [28] of 92%. For the same molecule, the residual activity [29] was 95.8%, the residual activity [30] was 96.6% and the residual activity [31] was 94.6%. It also gave a residual activity [32] of 105%, a residual activity [33] of 98% and a residual activity [34] of 187%. The residual activity [35] was 97.9%, the residual activity [36] was 82.4% and the residual activity [37] was 101%. It also gave a residual activity [38] of 98.5%, a residual activity [39] of 95.2% and a residual activity [40] of 92.4%. It also gave a residual activity [41] of 100% and a residual activity [42] of 101%.
